Like-named read-outs stand apart in the source and are kept apart here.
Assays:
C1b domain of human PKCδ = biological target: T1, C1b domain of human PKCδ (Homo sapiens, UniProt Q05655); test: Competitive 3H-PDBu binding to C1b domain of PKCδ; conditions: Ki PKCδ, 3H-PDBu competition
T1 construct: Genes encoding C1b domains of human PKCα, δ, ε, θ, and PKD1 (PKCμ) were synthesized; made in house; host or cells: E. coli BL21(DE3)
Outline: (§1)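 Ki derived by Cheng-Prusoff from IC50, with each protein batch's measured ^3H-PDBu Kd. Displacement of ^3H-PDBu from E. coli-produced GST-fused C1b domains or full-length human PKC was run 10 min at 37°C plus 20 min on ice, with filter capture and scintillation counting.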

C1b domain of human PKCα = biological target: T2, C1b domain of human PKCα (Homo sapiens, UniProt P17252); test: biochemical; type: binding; conditions: 3H-PDBu competition; for Ki: Ki PKCα
T2 construct: Genes encoding C1b domains of human PKCα, δ, ε, θ, and PKD1 (PKCμ) were synthesized; made in house; host or cells: E. coli BL21(DE3)
Outline: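 Competitive binding against 3H-PDBu tracer used recombinant GST-C1b fusion protein expressed in E. coli. Incubation ran 10 min at 37°C with shaking, then 20 min on ice, followed by filtration and scintillation counting of trapped 3H-PDBu. Affinity was derived using each protein preparation's experimentally determined Kd for 3H-PDBu.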

[1] = biological target: T3, C1b domain of human PKD1 (PKCμ) (Homo sapiens, UniProt Q15139); test: biochemical; type: binding
T3 construct: Genes encoding C1b domains of human PKCα, δ, ε, θ, and PKD1 (PKCμ) were synthesized; made in house; host or cells: E. coli BL21(DE3)
T3 sequence (Q15139 270-320 limits assumed): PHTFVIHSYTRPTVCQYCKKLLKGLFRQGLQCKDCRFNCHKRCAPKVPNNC
Outline: as §1

[2] = system: phosphorylation of PKCμ, PKCδ and Erk1/2 in A549 lung cancer cells; type: cell-based; conditions: 30 minutes
Experimental: Cells were then treated with different drugs at indicated concentrations for 30 minutes. […] Imagequant LAS4000 (GE) was used to scan membranes if secondary antibodies anti-mouse IgG HRP conjugate or anti-rabbit IgG HRP conjugate (dilutions from 1:2000-1:10000) were used. For ProteinSimple Wes system, manufacture's procedure was followed (ProteinSimple 12-230 kDa Wes Separation Module) for sample preparation, loading, running, and data analysis.
Phosphorylation of these sites has been linked to acute activation or catalytic activity of the PKC isoforms and Erk1/2. High level of phosphorylation indicates strong activation.

[3] = system: A549 non-small cell lung cancer cell line; test: Proliferation of A549 (CellTiter Glo); type: cell-based; conditions: Homo sapiens, A549, 96 h, read-out: IC50 μM (A549 Cell Line)
Outline: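 Luminescent CellTiter Glo read-out after 96 h compound exposure of A549 cells plated at 1,000/well and rested 24 h at 37° C; DMSO kept ≤0.25%, dilutions 3-fold. Inhibition taken relative to DMSO-treated wells; IC50, relative IC50 and top inhibition derived by curve fitting.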

[4] = system: HL-60 (Leukemia) cell line; test: Proliferation of HL-60; type: cell-based
Experimental: (§2) The diterpenoid compounds were tested in A549, a non-small cell lung cancer cell line harboring a K-Ras activating mutation. Briefly, A549 cells at a density of 1,000 cells/well were seeded in 96-well plates and incubated at 37° C. for 24 hours. A series of different concentrations of compound stocks (500×) were prepared by 3-fold serial dilution in DMSO. These compounds were further diluted in culture media and then added to cells so that the final DMSO concentration was not exceeding 0.25%. After 96 hours of incubation, 50 μL of CellTiter Glo reagent (Promega) was added to each well and luminescence was measured after 10 minutes using EnVision (PerkinElmer). Luminescence from cells treated with DMSO alone was set as Max and % of inhibition was calculated as follows: Inhibition %=(Max−Sample value)/Max×100. Data was analyzed using XL-fit software (ID Business Solutions Ltd.) and IC50, relative IC50, and % of top inhibition was calculated. Some of the compounds in this disclosure were very potent in blocking proliferation of A549 lung cancer cells at low nM range. In addition, potency of inhibiting A549 proliferation correlated well with its binding affinity to PKCs for this series of compounds. In other words, higher affinity binders had stronger inhibitory effects on A549 proliferation. This further support the notion that activation, rather than inhibition, of certain PKC isoforms is required to block proliferation of cancer cells, some of which may harbor K-Ras mutations. This is in sharp contrast to previous literature and common belief that inhibition of PKC is necessary to block cancer cell growth (Kang, 2014, New Journal of Science, 2014:1-36). Data presented here is in agreement with recent findings that many loss-of-function but not gain-of-function mutations of PKC isoforms have been identified in many human cancers (Antal et al., 2015, Cell, 160:489-502).
(§3) The compounds in this disclosure were tested for their potency in blocking proliferation of a few other cancer cells lines, including K-Ras mutant pancreatic cell lines Panc2.13 and KP-4, leukemia cell line HL-60, and lymphoma cell lines Namalwa and Mino. Similar procedures as in Example 67 were followed. Initial cell numbers seeded in 96-well plates were different for different cell lines: 3000 cells/well for Panc2.13; 800-1000 cells/well for KP-4; 5000 cells/well for HL-60; 5000-10000 cells/well for Namalwa and Mino. A ratio ratio of (IC50 of K01)/(IC50 of compound) (data in parenthesis in Table 5) was used to normalize the compound potency from different assay batches to a common comparator […].

[5] = system: Namalwa (Lymphoma) cell line; test: Proliferation of Namalwa; type: cell-based
Experimental: as §2, §3

[6] = system: Mino (Lymphoma) cell line; test: Proliferation of Mino; type: cell-based
Experimental: as §2, §3

T1 sequence (Q05655 230-280 limits assumed): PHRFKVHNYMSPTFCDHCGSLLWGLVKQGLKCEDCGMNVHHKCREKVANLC

## CC1=C[C@H]2[C@@]3(O)[C@H](C)C[C@]4(OC(=O)CCc5ncc(-c6ccc(Cl)cc6)o5)[C@H]([C@@H]3C=C(CO)C[C@]2(O)C1=O)C4(C)C [Compound K101-C1321]
C1b domain of human PKCδ
  Ki: < 5 nM
C1b domain of human PKCα
  Ki PKCα: E (E=>60 nM and ≤10 nM)
[1]
  Ki: < 5 nM
[2]; 0.3 μM, Western blot (FIG. 1)
  phosphorylation of PKC (PKD/PKCμ), PKCδ and Erk1/2: induced high levels of phosphorylation
[3]
  IC50: 0.03 to 0.06 µM
[4]; HL-60, value in parenthesis
  ratio of (IC50 of K01)/(IC50 of compound), HL-60: 5.71
[4]; Homo sapiens, HL-60, read-out: IC50 in μM HL-60 (Leukemia)
  IC50: 0.06 to 0.1 µM
[5]; Namalwa, value in parenthesis
  ratio of (IC50 of K01)/(IC50 of compound), Namalwa: 1.15
[5]; read-out: IC50 in μM Namalwa (Lymphoma)
  IC50: 0.03 to 0.06 µM
[6]; Homo sapiens, MINO, read-out: IC50 in μM Mino (Lymphoma)
  IC50: 0.01 to 0.03 µM
[6]; Mino, value in parenthesis
  ratio of (IC50 of K01)/(IC50 of compound), Mino: 5.36

## CC1=C[C@H]2[C@@]3(O)[C@H](C)C[C@]4(OC(=O)[C@H](N)Cc5ccccc5)[C@H]([C@@H]3C=C(CO)C[C@]2(O)C1=O)C4(C)C [Compound K101-C1336]
C1b domain of human PKCδ
  Ki: 100 to 200 nM
C1b domain of human PKCα
  Ki: 2000 to 4000 nM
[1]
  Ki: 30 to 60 nM
[2]; 3 μM, Western blot
  phosphorylation of PKC (PKD/PKCμ), PKCδ and Erk1/2: induced phosphorylation
[3]
  IC50: 1 to 2 µM

## CC1=C[C@H]2[C@@]3(O)[C@H](C)C[C@]4(OC(=O)[C@H](N)CC5CCCCC5)[C@H]([C@@H]3C=C(CO)C[C@]2(O)C1=O)C4(C)C [Compound K101-C1337]
C1b domain of human PKCδ
  Ki: 1 to 30 nM
C1b domain of human PKCα
  Ki: 1000 to 2000 nM
[1]
  Ki: 5 to 10 nM
[2]; Western blot, concentration not given, compared with enantiomer K101-C1327
  phosphorylation of PKC (PKD/PKCμ), PKCδ and Erk1/2: induced much lower levels of phosphorylation
[3]
  IC50: 0.2 to 0.6 µM

From patent US20220411362A1, “DITERPENOID COMPOUNDS THAT ACT ON PROTEIN KINASE C (PKC)” (K-Gen, Inc., priority 2019, published 2022)
